Laboratory results published in the NIST ThermoML archive (doi:10.1016/j.jct.2011.12.013).

Experiment: xn = mol fraction of the nth substance listed
Settings: Liquid, Custom Made Vibrating Tube Densimeter

C=C1CC[C@H]2C[C@@H]1C2(C)C [(1S,5S)-6,6-dimethyl-2-methylenebicyclo[3.1.1]heptane] + C=C(C)[C@H]1CC=C(C)CC1
mass density [kg/m3]
Settings	x2 = 0	x2 = 0.11	x2 = 0.2008	x2 = 0.289	x2 = 0.3961	x2 = 0.4938	x2 = 0.5906	x2 = 0.6984	x2 = 0.7993	x2 = 0.9022
283.15 K, 20000 kPa	891.3	888.1	885.4	882.8	879.6	876.8	873.9	870.9	868	864.5
283.15 K, 25000 kPa	894.2	891	888.3	885.7	882.4	879.6	876.8	873.7	870.8	867.8
283.15 K, 30000 kPa	897	893.9	891	888.4	885.2	882.5	879.7	876.5	873.6	870.4
283.15 K, 35000 kPa	899.9	896.7	893.8	891.2	887.9	885.2	882.4	879.3	876.5	873.3
283.15 K, 40000 kPa	902.6	899.3	896.3	894	890.6	887.8	885.1	881.9	879.2	876
298.15 K, 20000 kPa	880.2	877	874.1	871.8	868.7	865.8	863	859.9	857.2	854.3
298.15 K, 25000 kPa	883.3	880.1	877.2	874.9	871.8	868.9	866.2	863.1	860.2	857.3
298.15 K, 30000 kPa	886.3	883.1	880.3	877.9	874.8	871.9	869.2	866.2	863.3	860.3
298.15 K, 35000 kPa	889.3	886.1	883.5	881	877.7	874.9	872.3	869	866.5	863.4
298.15 K, 40000 kPa	892.2	889	886.5	883.9	880.7	878	875.4	871.9	869	866.1
313.15 K, 20000 kPa	869.3	866.1	863.5	860.9	857.8	854.9	852.4	849.3	846.5	843.7
313.15 K, 25000 kPa	872.6	869.5	866.8	864.2	861.1	858.1	855.6	852.5	849.8	847
313.15 K, 30000 kPa	875.7	872.6	870.1	867.5	864.3	861.4	858.7	855.7	852.9	849.9
313.15 K, 35000 kPa	878.8	875.7	873.3	870.6	867.5	864.5	862	858.7	856.1	853
313.15 K, 40000 kPa	882	878.8	876.7	873.8	870.7	867.8	865	861.8	859.1	856
328.15 K, 20000 kPa	858.2	855.3	852.6	850.1	846.9	844.3	841.5	838.9	835.9	833.1
328.15 K, 25000 kPa	861.7	858.7	856	853.5	850.4	847.7	844.9	842.1	839.4	836.4
328.15 K, 30000 kPa	865.2	862.1	859.5	857	853.9	851.2	848.5	845.4	842.7	839.7
328.15 K, 35000 kPa	868.7	865.5	862.7	860.3	857.2	854.6	851.9	848.7	846.1	843.1
328.15 K, 40000 kPa	872.2	868.8	866.1	863.7	860.7	857.8	855.3	852	849.4	846.8
343.15 K, 20000 kPa	847.7	844.7	842.1	839.6	836.7	834	831.4	828.4	825.7	822.7
343.15 K, 25000 kPa	851.4	848.4	845.8	843.5	840.3	837.6	834.9	832	829.1	826.3
343.15 K, 30000 kPa	855	852	849.4	846.9	843.9	841.2	838.6	835.6	832.9	830
343.15 K, 35000 kPa	858.6	855.5	853.1	850.6	847.4	844.8	842.3	839.1	836.7	833.6
343.15 K, 40000 kPa	862.1	859	856.7	854	850.8	848.3	845.6	842.4	840.1	837.1
358.15 K, 20000 kPa	837	834	831.4	829.2	826.3	823.7	821	818.2	815.6	812.5
358.15 K, 25000 kPa	840.9	838	835.4	833	830.1	827.4	824.9	822	819.4	816.7
358.15 K, 30000 kPa	844.8	841.9	839.2	836.8	833.8	831.2	828.6	825.7	823	820
358.15 K, 35000 kPa	848.7	845.7	843	840.6	837.5	834.9	832.4	829.4	826.8	823.9
358.15 K, 40000 kPa	852.6	849.6	846.8	844.6	841.4	838.7	836.2	833.1	830.3	827.3
